Results: patent publication US20260070887A1 (Shenzhen Zhongge Biological Technology Co., Ltd., priority 2022, published 2026)
Read-outs that look alike come from different tables or passages of the source.

Tests used:
[1] = target: KIF18A (Homo sapiens (Human), UniProt Q8NI77); experiment: KIF18A ATPase activity under tubulin stimulation (ADP-Glo assay); format: biochemical; details: KIF18A 30 nM, ATP 150 μM, pig microtubules
Method: This experiment assesses the inhibitory effect of the compounds of the present disclosure on the KIF18A target according to the IC50 values by measuring the KIF18A ATPase activity under tubulin stimulation with the presence of the compounds.
• 1. Preparation of 30 mL of reaction buffer: • (1) 450 μL 1M Tris-HCl (pH=7.5)+300 μL 1M MgCl2+30 μL 10% Pluronic F-68 (ThermoFisher, 24040032-100 ml); • (2) adjusting pH to 7.5, and adding water to adjust the volume to 30 mL. • 2. Preparation of a 5 mg/mL pig microtubule (Microtubules; MT) (Cytoskeleton Inc, MT002) stock solution: • (1) 10 mL PM buffer=150 μL 1 M PIPES (pH 7.0)+20 μL 0.5 mM MgCl2+100 μL 2 mM Taxol (Cytoskeleton Inc, TXD01)+9730 μL water. • (2) MT ([…]): Adding 100 μL PM buffer to prepare a 5 mg/mL stock solution. Keeping the MT (Cytoskeleton Inc, MT002) at room temperature for 10-15 minutes, gently mixing and storing same at −80° C. • 3. Preparation of 2 mL of kinase buffer: 2 mL reaction buffer+1 μL 2 mM Taxol (Cytoskeleton Inc, TXD01)+12 μL 5 mg/mL MT (Cytoskeleton Inc, MT002). • 4. Preparation of 2×KIF18A (30 nM) (ChemPartner, CPB-P22-31645) working solution: 2.4 μL 10 μM KIF18A (ChemPartner, CPB-P22-31645)+800 μL 1× kinase buffer. • 5. Preparation of 2×ATP (150 μM) (Promega, G9101) working solution: 12 μL 10 mM ATP+800 μL 1× kinase buffer. • 6. 25 nL of compound was transferred to a 384-well plate using Echo650. • 7. 2.5 μL of 2×KIF18A from Step 4 (final concentration of 30 nM) was added to the 384-well plate and the plate was incubated at 25° C. for 15 minutes. • 8. 2.5 μL of 2×ATP from Step 5 (final concentration of 150 μM) was added to the 384-well plate and the plate was incubated at 25° C. for 15 minutes. • 9. 5 μL ADP-Glo™ Reagent (Promega, G9101) was added to the 384-well plate and the plate was incubated at 25° C. for 40 minutes. • 10. 10 μL of kinase detection reagent (Promega, G9101) was added to the 384-well plate and the plate was incubated at 25° C. for 40 minutes. • 11. Luminescence values were measured using the EnVision Xcite Multilabel Reader (PerkinElmer, 2105-0020).

[2] = tested on: OVCAR-3 cells; experiment: OVCAR-3 cell proliferation (Cell Titer-Glo, 10 days); format: cell-based, human
Method: The inhibitory effect on the KIF18A target by the compounds of the present disclosure was evaluated by testing the inhibitory effect on proliferation of OVCAR-3 cells by the compounds of the present disclosure.
The following method was used to determine the effect of the compounds of the present disclosure on the proliferation of human ovarian cancer cells Ovcar-3 (HTB-161, ATCC). Cells were cultured in RPMI-1640 complete medium containing 20% fetal bovine serum, 0.01 mg/mL bovine insulin, 100 U penicillin, and 100 μg/mL streptomycin. The Promega kit Cell Titer-Glo (Cat. No. G7572) was used in this method for test.
For specific steps, reference was made to the kit instructions, and the procedure was outlined below: Test compounds were dissolved in DMSO to prepare a 10 mM stock solution, which was diluted at the predetermined test concentrations, and the test compounds at different concentrations were added to a 384-well cell test plate using ECHO. In the plate pre-added with the test compounds, 400 OVCAR-3 cells in the logarithmic growth phase were seeded per well, ensuring the final concentration of the test compounds in the reaction system ranged between 0.12 nM and 10 μM. The co-culture was maintained in a cell culture incubator for 10 days. Before testing, the cell culture plate was equilibrated for 10 minutes at room temperature, 25 μL of Cell Titer-Glo was added to each well, and the mixture was shaken and mixed well and let stand for 5 minutes. The luminescence values for samples in various wells were read using a microplate reader in Luminescence mode.
The percentage of inhibition of cell proliferation by the test compound at each concentration was calculated by comparing with the values of the control group (0.1% DMSO). The IC50 values of the compounds were obtained by concentration-inhibition rate nonlinear regression analysis of the test compounds using GraphPad Prism 9.

Sequence of KIF18A (Q8NI77 whole entry): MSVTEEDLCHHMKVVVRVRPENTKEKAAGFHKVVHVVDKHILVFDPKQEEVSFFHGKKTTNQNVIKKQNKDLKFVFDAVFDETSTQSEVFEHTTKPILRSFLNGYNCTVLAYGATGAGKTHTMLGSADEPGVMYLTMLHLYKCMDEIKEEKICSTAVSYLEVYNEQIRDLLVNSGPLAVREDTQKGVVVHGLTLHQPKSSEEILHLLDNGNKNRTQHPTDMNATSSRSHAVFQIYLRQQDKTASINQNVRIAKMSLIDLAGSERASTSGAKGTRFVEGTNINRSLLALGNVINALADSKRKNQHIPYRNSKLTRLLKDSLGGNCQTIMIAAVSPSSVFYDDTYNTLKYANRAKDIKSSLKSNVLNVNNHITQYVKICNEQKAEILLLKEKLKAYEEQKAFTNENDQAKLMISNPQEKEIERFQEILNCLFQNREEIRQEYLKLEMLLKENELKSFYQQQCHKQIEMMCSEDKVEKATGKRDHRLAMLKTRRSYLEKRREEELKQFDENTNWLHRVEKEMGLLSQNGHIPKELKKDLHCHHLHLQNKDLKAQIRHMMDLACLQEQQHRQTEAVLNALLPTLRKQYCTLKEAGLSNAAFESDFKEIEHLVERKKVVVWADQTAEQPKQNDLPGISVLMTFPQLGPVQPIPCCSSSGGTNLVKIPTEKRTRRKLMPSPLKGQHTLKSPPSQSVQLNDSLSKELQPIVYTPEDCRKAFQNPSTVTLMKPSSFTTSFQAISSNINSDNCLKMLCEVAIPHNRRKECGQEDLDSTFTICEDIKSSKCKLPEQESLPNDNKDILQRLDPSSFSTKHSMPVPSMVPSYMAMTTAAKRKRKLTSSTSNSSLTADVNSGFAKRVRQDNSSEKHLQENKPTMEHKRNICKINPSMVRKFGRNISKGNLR
Sequence of KIF18A (P02550 whole entry partner): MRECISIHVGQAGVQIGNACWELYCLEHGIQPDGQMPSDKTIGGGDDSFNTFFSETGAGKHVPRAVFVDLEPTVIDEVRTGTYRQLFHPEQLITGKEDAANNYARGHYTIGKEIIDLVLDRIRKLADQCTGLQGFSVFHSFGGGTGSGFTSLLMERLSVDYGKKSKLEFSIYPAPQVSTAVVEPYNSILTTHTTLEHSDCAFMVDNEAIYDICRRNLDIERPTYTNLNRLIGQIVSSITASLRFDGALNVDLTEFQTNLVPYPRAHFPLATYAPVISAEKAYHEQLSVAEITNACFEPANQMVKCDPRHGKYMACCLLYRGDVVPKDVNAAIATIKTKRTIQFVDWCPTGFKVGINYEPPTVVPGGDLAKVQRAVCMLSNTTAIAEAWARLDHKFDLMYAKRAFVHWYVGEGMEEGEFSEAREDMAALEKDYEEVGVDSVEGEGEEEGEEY
Sequence of KIF18A (P02554 whole entry partner): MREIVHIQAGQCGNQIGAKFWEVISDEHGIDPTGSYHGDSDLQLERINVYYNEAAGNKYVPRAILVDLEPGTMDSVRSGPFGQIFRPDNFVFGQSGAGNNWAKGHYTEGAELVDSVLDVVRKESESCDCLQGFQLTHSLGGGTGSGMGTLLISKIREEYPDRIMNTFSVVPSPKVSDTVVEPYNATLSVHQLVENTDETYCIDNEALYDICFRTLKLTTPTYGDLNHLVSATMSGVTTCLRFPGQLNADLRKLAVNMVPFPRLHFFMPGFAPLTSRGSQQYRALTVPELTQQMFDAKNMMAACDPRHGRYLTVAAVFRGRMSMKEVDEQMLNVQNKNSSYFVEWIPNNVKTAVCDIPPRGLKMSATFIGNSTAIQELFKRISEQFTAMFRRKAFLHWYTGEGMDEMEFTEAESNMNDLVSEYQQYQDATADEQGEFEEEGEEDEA

CC1OCCn2c1cc1c(NC(=O)c3ccc(NS(=O)(=O)CCO)cc3N3CCC4(CC3)CC4)cccc12 (stereo not shown) [Compound 311-P2, 4-((2-hydroxyethyl)sulfonamido)-N-(1-methyl-3,4-dihydro-1H-[1,4]oxazinyl[4,3-a]indol-9-yl)-2-(6-azaspiro[2.5]oct-6-yl)benzamide] was tested, and the IC50 [1] was ≤ 50 nM and the IC50 [2] was ≤ 50 nM.
With CCS(=O)(=O)Nc1ccc(C(=O)Nc2cccc3c2cc2n3CCC(F)(F)C2O)c(N2CCC3(CC2)CC3)c1 (stereo not shown) [Compound 382, N-(8,8-difluoro-9-hydroxy-6,7,8,9-tetrahydropyridino[1,2-a]indol-1-yl)-4-ethyl sulfonamido-2-(6-azaspiro[2.5]octan-6-yl)benzamide] the IC50 [1] was ≤ 50 nM and the IC50 [2] was ≤ 50 nM.
In the case of O=C(Nc1cccc2c1cc1n2CCC(F)(F)C1O)c1ccc(NS(=O)(=O)CCO)cc1N1CCC(=C(F)F)CC1 (stereo not shown) [Compound 383, N-(8,8-difluoro-9-hydroxy-6,7,8,9-tetrahydropyridino[1,2-a]indol-1-yl)-2-(4-(difluoromethylene)piperidin-1-yl)-4-((2-hydroxyethyl)sulfonamido)benzamide], the IC50 [1] is reported as ≤ 50 nM and the IC50 ([2]; Homo sapiens, OVCAR-3, 240 h) is reported as ≤ 50 nM.
With O=C(Nc1cccc2c1cc1n2CCC(F)(F)C1O)c1ccc(NS(=O)(=O)CCO)cc1N1CCC2(CC1)CC2 (stereo not shown) [Compound 384, N-(8,8-difluoro-9-hydroxy-6,7,8,9-tetrahydropyridino[1,2-a]indol-1-yl)-4-((2-hydroxyethyl)sulfonamido)-2-(6-azaspiro[2.5]oct-6-yl)benzamide] the IC50 [1] was 50 to 500 nM and the IC50 ([2]; Homo sapiens, OVCAR-3, 240 h) was ≤ 50 nM.
O=C(Nc1ccc2c(c1)N1CCC(F)(F)CC1CO2)c1ccc(NS(=O)(=O)CCO)cc1N1CCC(=C(F)F)CC1 (stereo not shown) [Compound 399] was tested, and the IC50 [1] was 50 to 500 nM and the IC50 ([2]; Homo sapiens, OVCAR-3, 240 h) was 500 to 5000 nM.
O=C(Nc1cccc2c1OCC1CC(F)(F)CCN21)c1ccc(NS(=O)(=O)CCO)cc1N1CCC2(CC1)CC2 (stereo not shown) [Compound 400, N-(8,8-difluoro-6,6a,7,8,9,10-hexahydrobenzo[b]pyrido[1,2-d][1,4]oxazin-4-yl)-4-((2-hydroxyethyl)sulfonamido)-2-(6-azaspiro[2.5]oct-6-yl)benzamide] was tested, and the IC50 [1] was ≤ 50 nM and the IC50 ([2]; Homo sapiens, OVCAR-3, 240 h) was 50 to 500 nM.
In the case of O=C(Nc1ccnc2c1cc1n2CCOC1)c1ccc(NS(=O)(=O)CCO)cc1N1CCC(=C(F)F)CC1 [Compound 401, 2-(4-(difluoromethylene)piperidin-1-yl)-N-(8,9-dihydro-6H-pyrido[3′,2′:4,5]pyrrolo[2,1-c][1,4]oxazin-4-yl)-4-((2-hydroxyethyl)sulfonamido)benzamide], the IC50 [1] is reported as ≤ 50 nM and the IC50 ([2]; Homo sapiens, OVCAR-3, 240 h) is reported as 50 to 500 nM.
Compound O=C(Nc1cccc2c1CC1COCCN21)c1ccc(NS(=O)(=O)CCO)cc1N1CCC2(CC1)CC2 (stereo not shown) [Compound 411, 4-((2-hydroxyethyl)sulfonamido)-2-(6-azaspiro[2.5]oct-6-yl)-N-(3,4,10,10-tetrahydro-1H-[1,4]oxazino[4,3-a]indol-9-yl)benzamide] has an IC50 [1] of 50 to 500 nM and an IC50 [2] of 50 to 500 nM.
COC1c2cc3c(NC(=O)c4ccc(NS(=O)(=O)CCO)cc4N4CCC5(CC4)CC5)ccc(C#N)c3n2CCC1(F)F (stereo not shown) [Compound 428, N-(4-cyano-8,8-difluoro-9-methoxy-6,7,8,9-tetrahydropyridino[1,2-a]indol-1-yl)-4-((2-hydroxyethyl)sulfonamido)-2-(6-azaspiro[2.5]oct-6-yl)benzamide] showed an IC50 [1] of 50 to 500 nM and an IC50 ([2]; Homo sapiens, OVCAR-3, 240 h) of 50 to 500 nM.
With O=C(Nc1cccc2c1CCN2CC1CC1)c1ccc(NS(=O)(=O)CCO)cc1N1CCC2(CC1)CC2 [Example 5, N-(1-(cyclopropylmethyl)indoline-4-(2-hydroxyethyl)sulfonamido)-2-(6-azaspiro[2.5]octan-6-yl)benzamide] the IC50 [1] was ≤ 50 nM and the IC50 [2] was 50 to 500 nM.
With O=C(Nc1cccc2c1cc1n2CCC(F)(F)C1)c1ccc(NS(=O)(=O)CCO)cc1N1CCC2(CC1)CC2 [Example 128, 2-(6-azaspiro[2.5]oct-6-yl)-N-(8,8-difluoro-6,7,8,9-tetrahydropyridino[1,2-a]indol-1-yl)-4-{[(2-hydroxyethyl)sulfonamide]}benzamide] the IC50 [1] was ≤ 50 nM and the IC50 [2] was ≤ 50 nM.
With O=C(Nc1cccc2c1CC1CCCN21)c1ccc(NS(=O)(=O)CCO)cc1N1CCC2(CC1)CC2 (stereo not shown) [Example 130, 4-((2-hydroxyethyl)sulfonamide)-2-(6-azaspiro[2.5]octan-6-yl)-N-(2,3,9,9a-tetrahydro-1H-pyrrolo[1,2a]indol-8-yl)benzamide] the IC50 [1] was ≤ 50 nM and the IC50 [2] was 50 to 500 nM.
Compound CC(C)(O)Cn1ccc2c(NC(=O)c3ccc(NS(=O)(=O)CCO)cc3N3CCC4(CC3)CC4)cccc21 [Example 279, N-(1-(2-hydroxy-2-methylpropyl)-1H-indol-4-yl)-4-((2-hydroxyethyl)sulfonamido)-2-(6-azaspiro[2.5]oct-6-yl)benzamide] has an IC50 [1] of 50 to 500 nM and an IC50 ([2]; Homo sapiens, OVCAR-3, 240 h) of 500 to 5000 nM.
O=C(Nc1cccc2c1ccn2CC1(F)CC1)c1ccc(NS(=O)(=O)CCO)cc1N1CCC2(CC1)CC2 [Example 283, N-(1-((1-fluorocyclopropyl)methyl)-1H-indol-4-yl)-4-((2-hydroxyethyl)sulfonamido)-2-(6-azaspiro[2.5]oct-6-yl)benzamide] gave an IC50 [1] of 50 to 500 nM and an IC50 ([2]; Homo sapiens, OVCAR-3, 240 h) of 50 to 500 nM.
O=C(Nc1cccc2c1ccn2CC1CC1(F)F)c1ccc(NS(=O)(=O)CCO)cc1N1CCC2(CC1)CC2 (stereo not shown) [Example 286, N-(1-((2,2-difluorocyclopropyl)methyl)-1H-indol-4-yl)-4-((2-hydroxyethyl)sulfonamido)-2-(6-azaspiro[2.5]oct-6-yl)benzamide] was tested, and the IC50 [1] was ≤ 50 nM and the IC50 ([2]; Homo sapiens, OVCAR-3, 240 h) was 50 to 500 nM.
Work on O=C(Nc1cccc2c1cnn2CC1CC1)c1ccc(NS(=O)(=O)CCO)cc1N1CCC2(CC1)CC2 [Example 287, N-(1-(cyclopropylmethyl)-1H-indazol-4-yl)-4-(2-hydroxyethylsulfonamido)-2-(6-azaspiro[2.5]octan-6-yl)benzamide] yielded an IC50 [1] of 50 to 500 nM and an IC50 ([2]; Homo sapiens, OVCAR-3, 240 h) of 50 to 500 nM.
For O=C(Nc1ccc(F)c2c1OCCN2CC1CC1)c1ccc(NS(=O)(=O)CCO)cc1N1CCC2(CC1)CC2 [Example 294, N-(4-(cyclopropylmethyl)-5-fluoro-3,4-dihydro-2H-benzo[b][1,4]oxazin-8-yl)-4-((2-hydroxyethyl)sulfonamido)-2-(6-azaspiro[2.5]oct-6-yl)benzamide], the IC50 [1] was ≤ 50 nM and the IC50 ([2]; Homo sapiens, OVCAR-3, 240 h) was 500 to 5000 nM.
CC1Cn2c(cc3c(NC(=O)c4ccc(NS(=O)(=O)CCO)cc4N4CCC5(CC4)CC5)cccc32)C(C)O1 (stereo not shown) [Example 312, N-(1,3-dimethyl-3,4-dihydro-1H-[1,4]oxazino[4,3-a]indol-9-yl)-4-((2-hydroxyethyl)sulfonamido)-2-(6-azaspiro[2.5]oct-6-yl)benzamide] was tested, and the IC50 [1] was 50 to 500 nM and the IC50 ([2]; Homo sapiens, OVCAR-3, 240 h) was ≤ 50 nM.
In the case of O=C(Nc1cccc2c1cc1n2CC(F)(F)CC1)c1ccc(NS(=O)(=O)CCO)cc1N1CCC2(CC1)CC2 [Example 341, N-(7,7-difluoro-6,7,8,9-tetrahydropyridino[1,2-a]indol-1-yl)-4-((2-hydroxyethyl)sulfonamido)-2-(6-azaspiro[2.5]oct-6-yl)benzamide], the IC50 [1] is reported as 50 to 500 nM and the IC50 ([2]; Homo sapiens, OVCAR-3, 240 h) is reported as 50 to 500 nM.
With O=C(Nc1cccc2c1cc1n2CCCC1O)c1ccc(NS(=O)(=O)CCO)cc1N1CCC2(CC1)CC2 (stereo not shown) [Example 342, N-(9-hydroxy-6,7,8,9-tetrahydropyridino[1,2-a]indol-1-yl)-4-((2-hydroxyethyl)sulfonamido)-2-(6-azaspiro[2.5]octan-6-yl)benzamide] the IC50 [1] was ≤ 50 nM and the IC50 ([2]; Homo sapiens, OVCAR-3, 240 h) was 50 to 500 nM.
